Legend:
Format in all cases: biochemical
[1] = target: neuraminidase (H275Y) of A(H1N1) clinical isolate 1157/08 (Influenza A virus (H1N1), UniProt G3LYR2, G214E)
[2] = target: neuraminidase (H275Y) of A(H1N1) clinical isolate 0341/07 (Influenza A virus (H1N1), UniProt D5F1R0, D354G/H275Y)
[3] = target: neuraminidase (H275Y) of A(H1N1) clinical isolate 1154/08 (Influenza A virus (H1N1), UniProt G3LYR2)
[4] = target: neuraminidase (H275Y) of A(H1N1) clinical isolate 0910/08 (Influenza A virus (H1N1), UniProt G3LYR2)
[5] = target: neuraminidase (H275Y) of A(H1N1) clinical isolate 1208/08 (Influenza A virus (H1N1), UniProt G3LYR2)
[6] = target: neuraminidase (H275Y) of A(H1N1) clinical isolate 1170/08 (Influenza A virus (H1N1), UniProt G3LYR2)
[7] = target: neuraminidase (H275Y) of the 11 resistant H1N1 viruses from the 2007–2008 season (Influenza A virus (H1N1), UniProt G3LYQ1, H275Y); conditions: read-out: Mean Km, group Mean
[8] = target: neuraminidase (H275Y) of A(H1N1) clinical isolate 0749/07 (Influenza A virus (H1N1), UniProt D5F1R0, D354G/H275Y)
[9] = target: neuraminidase of A(H1N1) clinical isolate 0006/07 (Influenza A virus (H1N1), UniProt D5F1R0, K249G)
[10] = target: neuraminidase (H275Y) of A(H1N1) clinical isolate 0577/07 (Influenza A virus (H1N1), UniProt D5F1R0, D354G/H275Y)
[11] = target: neuraminidase (H275Y) of A(H1N1) clinical isolate 0847/07 (Influenza A virus (H1N1), UniProt D5F1R0, D354G/H275Y)
[12] = target: neuraminidase (H275Y) of A(H1N1) clinical isolate 0963/08 (Influenza A virus (H1N1), UniProt G3LYR2, G354D)
[13] = target: neuraminidase (H275Y) of A(H1N1) clinical isolate 0644/07 (Influenza A virus (H1N1), UniProt D5F1R0, D354G/H275Y)

Work on `CC(=O)N[C@@H]1[C@@H](O)C[C@](Oc2ccc3c(C)cc(=O)oc3c2)(C(=O)O)O[C@H]1C(O)[C@H](O)CO` (stereo partly shown) [MUNANA] yielded a Km [1] of 20 µM, a Km [2] of 18 µM and a Km [3] of 14.5 µM. For the same molecule, the Km [4] was 25 µM, the Km [5] was 19 µM and the Km [6] was 18.2 µM. It also gave a Km [7] of 19.4 µM, a Km [8] of 18 µM and a Km [9] of 12.4 µM. For the same molecule, the Km [10] was 19.5 µM, the Km [11] was 24 µM and the Km [12] was 18.4 µM. The Km [13] was 18.4 µM.
